# Results from patent US8975235B2, “Lysophosphatidic acid receptor antagonists” (InterMune, Inc., priority 2011, dated 2015).
# Molecular target: Human LPA1 (Homo sapiens, UniProt Q92633)
# Assay: Beta-Arrestin based assay for human LPA1R antagonists (PathHunter)
# Assay type: cell-based
# Design: host or cells: CHO
# Settings: CHO cells stably expressing ProLink tagged human LPA1R; agonist LPA 0.5 micromolar
# Experimental: Beta-Arrestin Based Assays for Human LPA1R Antagonists and Agonists
# A CHO cell line stably expressing the ProLink™ tagged human LPA1R was obtained from DiscoverX Inc, Fremont, Calif. In this system, β-Arrestin was fused to an N-terminal deletion mutant of β-galactosidase (termed the enzyme acceptor or EA), the human LPA1R was fused to a smaller (42 amino acids) weakly complementing fragment termed ProLink™. […] Cell handling and assays were performed according to protocols specified in the PathHunter® assays kits (DiscoverX, Fremont, Calif.). Assays were performed in quadruplicate in white 384 well plates. End point luminescence data were plotted and fit to a 4 parameter logistic function to obtain IC50 values. For antagonist assays, an […] concentration of agonist (LPA) equal to 0.5 micromolar was used.
# Chain of Human LPA1 (Q92633 whole entry): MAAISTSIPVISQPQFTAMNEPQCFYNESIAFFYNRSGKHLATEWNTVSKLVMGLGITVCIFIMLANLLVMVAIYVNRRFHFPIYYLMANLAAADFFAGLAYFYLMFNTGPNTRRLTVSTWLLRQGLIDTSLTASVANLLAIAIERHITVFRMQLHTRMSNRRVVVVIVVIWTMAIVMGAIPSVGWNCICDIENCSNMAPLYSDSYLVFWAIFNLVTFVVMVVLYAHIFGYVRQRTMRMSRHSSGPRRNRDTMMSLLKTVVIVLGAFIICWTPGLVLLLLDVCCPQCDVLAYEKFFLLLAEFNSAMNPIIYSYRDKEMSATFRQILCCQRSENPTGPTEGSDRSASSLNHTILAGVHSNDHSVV
row,EC50,SMILES
1,< 0.05 µM,"Cc1nsc(-c2ccc(-c3ccc(C4(C(=O)O)CC4)cc3)cc2)c1NC(=O)O[C@H](C)C1=C(Cl)CCC1 (single isomer, unassigned) [Compound 216]"
2,> 0.5 µM,"Cc1nsc(-c2ccc(-c3ccc(C4(C(=O)O)CC4)cc3)cc2)c1NC(=O)O[C@@H](C)C1=C(Cl)CCC1 (single isomer, unassigned) [Compound 217]"
3,< 0.05 µM,C[C@@H](OC(=O)Nc1c(-c2ccc(-c3ccc(C4(C(=O)O)CC4)cc3)cc2)oc2ccccc12)c1ccccc1Cl [Compound 42]
4,> 0.5 µM,Cc1cccc2c(NC(=O)O[C@H](C)c3ccccc3Cl)c(-c3ccc(-c4ccc(C5(C(=O)O)CC5)cc4)cc3)oc12 [Compound 51]
5,> 0.5 µM,Cc1ccc2c(NC(=O)O[C@H](C)c3ccccc3Cl)c(-c3ccc(-c4ccc(C5(C(=O)O)CC5)cc4)cc3)oc2c1 [Compound 52]
6,> 0.5 µM,Cc1ccc2oc(-c3ccc(-c4ccc(C5(C(=O)O)CC5)cc4)cc3)c(NC(=O)O[C@H](C)c3ccccc3Cl)c2c1 [Compound 53]
7,0.05 to 0.5 µM,C[C@@H](OC(=O)Nc1cnnn1-c1ccc(-c2ccc(C3(C(=O)O)CC3)cc2)cc1)c1ccccc1 [Compound 66]
8,< 0.05 µM,Cc1nsc(-c2ccc(-c3ccc(C(C(=O)O)c4ccccc4)cc3)cc2)c1NC(=O)O[C@H](C)c1ccccc1Cl (stereo partly shown) [Compound 69]

# Continued, molecule first:
row,SMILES,EC50
1,"Cc1noc(-c2ccc(-c3ccc(C(C(=O)O)c4ccccc4)cc3)cc2)c1NC(=O)O[C@H](C)c1ccccc1Cl (single isomer, unassigned) [Compound 16]",< 0.05 µM
2,"Cc1noc(-c2ccc(-c3ccc4c(c3)CCC4C(=O)O)cc2)c1NC(=O)O[C@H](C)c1ccccc1Cl (single isomer, unassigned) [Compound 26]",< 0.05 µM
3,CCOC(=O)Cc1ccc(-c2ccc(-c3onc(C)c3NS(=O)(=O)Cc3ccccc3)cc2)cc1 [Compound 15],> 0.5 µM
4,Cc1noc(-c2ccc(-c3ccc(CC(=O)O)cc3)cc2)c1NS(=O)(=O)Cc1ccccc1 [Compound 17],> 0.5 µM
5,CCOC(=O)Cc1ccc(-c2ccc(-c3onc(C)c3NS(=O)(=O)c3ccccc3)cc2)cc1 [Compound 18],> 0.5 µM
6,Cc1noc(-c2ccc(-c3ccc4c(c3)CCCC4C(=O)O)cc2)c1NC(=O)O[C@H](C)c1ccccc1Cl (stereo partly shown) [Compound 21],0.05 to 0.5 µM
7,Cc1noc(-c2ccc(Nc3ccccc3C(=O)O)cc2)c1NC(=O)O[C@H](C)c1ccccc1Cl [Compound 22],> 0.5 µM
8,Cc1noc(-c2ccc(-c3ccc4c(c3)CCCC4C(=O)O)cc2)c1NC(=O)O[C@H](C)c1ccccc1Cl (stereo partly shown) [Compound 23],0.05 to 0.5 µM
9,Cc1noc(-c2ccc(-c3ccc4c(c3)CCCC4C(=O)O)cc2)c1NC(=O)O[C@H](C)c1ccccc1Cl (stereo partly shown) [Compound 24],0.05 to 0.5 µM
10,Cc1noc(-c2ccc(-c3ccc4c(c3)CCC4C(=O)O)cc2)c1NC(=O)O[C@H](C)c1ccccc1Cl (stereo partly shown) [Compound 27],< 0.05 µM
11,C[C@@H](OC(=O)Nc1c(-c2ccc(-c3ccc(CC(=O)O)cc3)cc2)oc2ccccc12)c1ccccc1Cl [Compound 31],0.05 to 0.5 µM
12,Cc1noc(-c2ccc(-c3ccc(C4(C(=O)O)CN(Cc5ccccc5)C4)cc3)cc2)c1NC(=O)O[C@H](C)c1ccccc1Cl [Compound 33],< 0.05 µM
13,Cc1noc(-c2ccc(-c3ccc(C4(C(=O)O)CNC4)cc3)cc2)c1NC(=O)O[C@H](C)c1ccccc1Cl [Compound 34],> 0.5 µM
14,COC(=O)N1CC(C(=O)O)(c2ccc(-c3ccc(-c4onc(C)c4NC(=O)O[C@H](C)c4ccccc4Cl)cc3)cc2)C1 [Compound 37],< 0.05 µM
15,Cc1noc(-c2ccc(-c3ccc(C4(C(=O)O)CN(S(C)(=O)=O)C4)cc3)cc2)c1NC(=O)O[C@H](C)c1ccccc1Cl [Compound 38],< 0.05 µM
16,Cc1noc(-c2ccc(-c3ccc(C4(C(=O)O)CN(C)C4)cc3)cc2)c1NC(=O)O[C@H](C)c1ccccc1Cl [Compound 39],0.05 to 0.5 µM
17,CCNC(=O)N1CC(C(=O)O)(c2ccc(-c3ccc(-c4onc(C)c4NC(=O)O[C@H](C)c4ccccc4Cl)cc3)cc2)C1 [Compound 40],0.05 to 0.5 µM
